29 molecules from ChEMBL document CHEMBL5154836, “4,5-Dihydroxypyrimidine Methyl Carboxylates, Carboxylic Acids, and Carboxamides as Inhibitors of Human Cytomegalovirus pUL89 Endonuclease” (J Med Chem, 2022) can be followed below.

SMILES strings stand for the structures. Converted amounts (≈) assume the structure as drawn.

Data set [1] addresses T1, Tripartite terminase subunit 3 (Human betaherpesvirus 5, UniProt P16732).
T1 sequence (P16732 whole entry): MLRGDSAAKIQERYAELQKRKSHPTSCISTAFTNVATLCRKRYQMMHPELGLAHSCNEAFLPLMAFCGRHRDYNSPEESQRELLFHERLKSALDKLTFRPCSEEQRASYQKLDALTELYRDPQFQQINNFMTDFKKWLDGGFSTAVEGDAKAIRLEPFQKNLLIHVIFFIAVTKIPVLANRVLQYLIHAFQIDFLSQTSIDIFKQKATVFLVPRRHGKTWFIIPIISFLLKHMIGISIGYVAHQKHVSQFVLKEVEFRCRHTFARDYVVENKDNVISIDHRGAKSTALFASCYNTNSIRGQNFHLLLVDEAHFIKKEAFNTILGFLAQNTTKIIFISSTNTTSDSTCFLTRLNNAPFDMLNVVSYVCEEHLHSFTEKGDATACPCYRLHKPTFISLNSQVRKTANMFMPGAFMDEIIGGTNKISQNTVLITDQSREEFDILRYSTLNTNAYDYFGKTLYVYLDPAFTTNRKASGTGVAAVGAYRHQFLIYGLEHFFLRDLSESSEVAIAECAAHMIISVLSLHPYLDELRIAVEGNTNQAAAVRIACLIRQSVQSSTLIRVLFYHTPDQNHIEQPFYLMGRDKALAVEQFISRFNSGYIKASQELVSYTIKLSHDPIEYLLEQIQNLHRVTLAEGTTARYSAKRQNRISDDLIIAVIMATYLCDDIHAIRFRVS

A further data set deals with HFF. Kind of data set: Cytotoxicity against HFF cells assessed as cell viability incubated for 168 hrs by MTS-based Cell Titer assay. Format: toxicity. To be noted: human.
For data set [2] the following is noted: human, plasma, 24 h.
Data set [3] can be described thus: Stability of compound in CD-1 mouse plasma as compound remaining measured for 6 hrs by LC-MS/MS analysis. Format: ADME, cell-free. To be noted: read-out: Stability.
Data set [4] can be described thus: Aqueous solubility of the compound in DPBS at pH 7.2 incubated for 72 hrs by LC-MS/MS analysis. Format: physicochemical.
The conditions of data set [5]: human, microsomes, 1 h.
Description: Stability in human liver microsomes assessed as half life measured upto 60 mins in presence of NADPH by LC-MS/MS analysis
For data set [6] the following is noted: mouse, microsomes, 1 h.
Description: Stability in mouse liver microsomes assessed as half life measured upto 60 mins in presence of NADPH by LC-MS/MS analysis
The conditions of data set [7]: mouse, plasma, 24 h.
The nature of data set [8]: Stability of compound in human plasma as compound remaining measured for 6 hrs by LC-MS/MS analysis. Format: ADME, cell-free. To be noted: read-out: Stability.
Data set [9] can be described thus: Apparent permeability coefficient of the compound incubated for 5 hrs by LC-MS/MS analysis based PAMPA method. Format: ADME.

In data set [1], `O=C(O)c1nc(-c2ccsc2)nc(O)c1O` came in with an IC50 of 2700 nM. `O=C(O)c1nc(Cc2ccc(F)cc2)[nH]c(=O)c1O`: in data set [1], the IC50 turned out to be 740 nM. In the case of `O=C(O)c1nc(-c2cccs2)nc(O)c1O`, the CC50 in the data set with HFF is more than 100000 nM. Also, the t1/2 is more than 24 h in data set [2], more than 120 h in data set [5], more than 120 h in [6] and more than 24 h in [7]. The remaining at 6 h in data set [3] and in data set [8] was more than 94% in each case. Also, in data set [4], the thermodynamic solubility at 72 h came out at 1480 µM (≈ 352 µg/mL).

Consider `COC(=O)c1nc(-c2cccs2)nc(O)c1O`, for which the permeability in data set [9] is recorded as 0.9 10^-6 cm/s. In data set [1], this molecule gave an IC50 of 880 nM. Molecule `O=C(NCc1ccc(F)cc1)c1nc(-c2cccs2)nc(O)c1O` displayed an IC50 in data set [1] of 700 nM. As for `O=C(NCc1ccc(Cl)cc1)c1nc(-c2cccs2)nc(O)c1O`, the IC50 in data set [1] was determined as 1300 nM.

In [1], `Cc1ccc(CNC(=O)c2nc(-c3cccs3)nc(O)c2O)cc1` displayed an IC50 of 1900 nM. Still for that read-out and setting: in the case of `COC(=O)c1nc(-c2ccccc2)[nH]c(=O)c1O` it was 1100 nM; in that of `Cc1ccsc1-c1nc(O)c(O)c(C(=O)O)n1`, 1400 nM. Regarding `Cc1nc(C(=O)O)c(O)c(=O)[nH]1`, the IC50 in [1] was found to be 2100 nM.

On to `COC(=O)c1nc(-c2ccc(F)cc2)[nH]c(=O)c1O`, for which, in [1], the IC50 is 860 nM. Consider `O=C(O)c1nc(Cc2ccsc2)[nH]c(=O)c1O`, for which the IC50 in data set [1] came to 2400 nM.

With `COC(=O)c1nc(Cc2ccc(Cl)c(Cl)c2)[nH]c(=O)c1O`, the permeability in data set [9] was 3.1 10^-6 cm/s. 2100 nM corresponded to half-maximal inhibition in [1] (IC50). For the molecule `Cc1ccc(Cc2nc(C(=O)O)c(O)c(=O)[nH]2)cc1`, the permeability in [9] was 0.07 10^-6 cm/s. In addition, in data set [1], the IC50 amounted to 920 nM. `COC(=O)c1nc(Cc2ccc(Cl)cc2Cl)[nH]c(=O)c1O` yielded an IC50 in [1] of 5700 nM. `O=C(O)c1nc(-c2ccc(F)cc2)[nH]c(=O)c1O` had a concentration for half-maximal inhibition (IC50) in [1] of 540 nM.

With `COC(=O)c1nc(-c2ccco2)[nH]c(=O)c1O`, the IC50 in data set [1] was 3000 nM. In the case of `Cc1nc(C(=O)NCc2ccc(Cl)c(Cl)c2)c(O)c(=O)[nH]1`, inhibition in data set [1] was half-maximal at 2800 nM (IC50). In the case of `O=C(O)c1nc(-c2ccc(-c3ccccc3)cc2)[nH]c(=O)c1O`, the permeability in data set [9] is 0.06 10^-6 cm/s. This molecule registered an IC50 in data set [1] of 1500 nM. Turning to `O=C(NCc1ccc(F)c(F)c1)c1nc(-c2cccs2)[nH]c(=O)c1O`, half-maximal inhibition in data set [1] (IC50) required 790 nM. The molecule `O=C(O)c1nc(Cc2ccc(F)c(F)c2)[nH]c(=O)c1O` gave an IC50 in data set [1] of 870 nM.

`O=C(NCc1ccc(C(F)(F)F)cc1)c1nc(-c2cccs2)[nH]c(=O)c1O`: in data set [1], 3000 nM corresponded to half-maximal inhibition (IC50). Turning to `O=C(O)c1nc(Cc2ccc(Cl)cc2Cl)[nH]c(=O)c1O`, the IC50 in data set [1] amounted to 3800 nM.

As to `O=C(O)c1nc(Cc2cccs2)[nH]c(=O)c1O`, the IC50 in [1] came to 1700 nM. Compared with the last molecule, the IC50 is about 2.2-fold lower. Molecule `COC(=O)c1nc(Cc2ccc(F)cc2F)[nH]c(=O)c1O` yielded an IC50 in data set [1] of 760 nM. As for `COC(=O)c1nc(-c2ccc(-c3ccccc3)cc2)[nH]c(=O)c1O`, the IC50 in data set [1] came to 780 nM.

Take `COc1ccc(CNC(=O)c2nc(C)[nH]c(=O)c2O)cc1`: the permeability in data set [9] is recorded as 12.4 10^-6 cm/s. For the same molecule, half-maximal inhibition in data set [1] (IC50) was put at 590 nM. In data set [1], `O=C(O)c1nc(Cc2ccc(F)cc2F)[nH]c(=O)c1O` yielded an IC50 of 1400 nM. Turning to `O=C(O)c1nc(Cc2ccc(Cl)c(Cl)c2)nc(O)c1O`, the permeability in data set [9] is 0.05 10^-6 cm/s. In addition, the t1/2 was more than 24 h in data set [2], more than 120 h in [5], more than 120 h in [6] and more than 24 h in data set [7]. In addition, the remaining at 6 h in data set [3] and in data set [8] was more than 94% throughout. This molecule came in with a solubility (thermodynamic) at 72 h in data set [4] not below 3170 µM. Also, the IC50 in [1] is 670 nM.
